# Experimental data published in article PMC11089505, “Structural Elucidation and Antiviral Activity of Covalent Cathepsin L Inhibitors” (Journal of Medicinal Chemistry, 2024).
# Several values for one entry are separate records, joined by “and”; a condition that tells them apart may be missing. Identical values can stand only once.
# Test system: SARS-CoV-2 Omicron variant BA.1 in Vero E6 cells
# Assay: microbe, parasite or virus in culture
# Type: cell-based
SMILES,reduction of quantity of viral RNA,"EC50 (Severe acute respiratory syndrome coronavirus 2, Vero C1008, 24 h, read-out: EC50 (qRT-PCR)) [nM]",% RNA (qRT-PCR)
"CCCC(NC(=O)C(CC(C)C)NC(=O)OCc1ccccc1)C(=O)C(=O)NCc1ccccn1 (stereo not drawn) [CI-XII, Benzyl N-[1-[[1.2-dioxo-1-(pyridin-2-ylmethylamino)hexan-3-yl]amino]-4-methyl-1-oxopentan-2-yl]carbamate]",more than 50%,< 100,–
CCC(CC)COC(=O)[C@H](C)N[P@](=O)(OC[C@H]1O[C@@](C#N)(c2ccc3c(N)ncnn23)[C@H](O)[C@@H]1O)Oc1ccccc1 [Remdesivir],–,–,124.5% and 63.1%
